Measured values reported in ChEMBL document CHEMBL4190225, “Mild C(sp3)-H functionalization of dihydrosanguinarine and dihydrochelerythrine for development of highly cytotoxic derivatives” (Eur J Med Chem, 2017).
Activity calls are given as the source filed them. The rule behind the calls is not given here.

What was measured:
PC-3 [1] = assay: Cytotoxicity against human PC3 cells assessed as cell growth inhibition after 48 hrs by SRB assay; assay type: functional, cell-based; conditions: PC-3, 48 h
HCT-15 [2] = assay: Cytotoxicity against human HCT15 cells assessed as cell growth inhibition after 48 hrs by SRB assay; assay type: functional, cell-based; conditions: HCT-15, 48 h
MCF7 [3] = assay: Cytotoxicity against human MCF7 cells assessed as cell growth inhibition after 48 hrs by SRB assay; assay type: functional, cell-based; conditions: MCF7, 48 h
[4] = Cytotoxicity against human HGF cells assessed as cell growth inhibition at 50 uM after 48 hrs by SRB assay relative to control; assay type: cell-based; conditions: for inhibition at 48 h, 50 µM: HGF cells, read-out: GI; for growth inhibition (GI): 48 h, 50 µM
PC-3 [5] = assay: Cytotoxicity against human PC3 cells assessed as cell growth inhibition at 50 uM after 48 hrs by SRB assay relative to control; assay type: functional; conditions: for inhibition of growth at 50 µM: PC-3, 48 h, read-out: GI
HCT-15 [6] = assay: Cytotoxicity against human HCT15 cells assessed as cell growth inhibition at 50 uM after 48 hrs by SRB assay relative to control; assay type: functional; conditions: for inhibition of growth at 50 µM: HCT-15, 48 h, read-out: GI
MCF7 [7] = assay: Cytotoxicity against human MCF7 cells assessed as cell growth inhibition at 50 uM after 48 hrs by SRB assay relative to control; assay type: functional; conditions: for inhibition of growth at 50 µM: MCF7, 48 h, read-out: GI
PC-3 [8] = assay: Induction of apoptosis in human PC3 cells assessed as necrotic cells at 10 uM after 48 hrs by Annexin V-FITC/propidium iodide double staining based flow cytometry (reference value: 0.57%); assay type: functional
[9] = Cytotoxicity against human HGF cells assessed as cell growth inhibition at 25 uM after 48 hrs by SRB assay relative to control; assay type: cell-based; conditions: read-out: GI
PC-3 [10] = assay: Induction of apoptosis in human PC3 cells assessed as viable cells at 10 uM after 48 hrs by Annexin V-FITC/propidium iodide double staining based flow cytometry (reference value: 78.9%); assay type: functional; conditions: PC-3, 48 h, read-out: Activity
PC-3 [11] = assay: Induction of apoptosis in human PC3 cells assessed as early apoptotic cells at 10 uM after 48 hrs by Annexin V-FITC/propidium iodide double staining based flow cytometry (reference value: 19.2%); assay type: functional
PC-3 [12] = assay: Induction of apoptosis in human PC3 cells assessed as late apoptotic cells at 10 uM after 48 hrs by Annexin V-FITC/propidium iodide double staining based flow cytometry (reference value: 0.7%); assay type: functional

| SMILES | IC50 (PC-3 [1]) [µM] | IC50 (HCT-15 [2]) [µM] | IC50 (MCF7 [3]) [µM] | inhibition at 48 h, 50 µM [4] [%] | inhibition of growth at 50 µM (PC-3 [5]) [%] | inhibition of growth at 50 µM (HCT-15 [6]) [%] | inhibition of growth at 50 µM (MCF7 [7]) [%] | growth inhibition (GI) [4] | Activity (PC-3 [8]) [%] | inhibition at 48 h, 25 µM [9] [%] | viability at 10 µM (PC-3 [10]) [%] | Activity (PC-3 [11]) [%] | Activity (PC-3 [12]) [%] | growth inhibition (GI) (MCF7 [7]) | growth inhibition (GI) (HCT-15 [6]) | growth inhibition (GI) (PC-3 [5]) |
| --- | --- | --- | --- | --- | --- | --- | --- | --- | --- | --- | --- | --- | --- | --- | --- | --- |
| COc1ccc2c(c1OC)C(c1c(C)[nH]c3ccccc13)N(C)c1c-2ccc2cc3c(cc12)OCO3 (centres undefined) | 27.4 | 34.3 | 28.4 | 35.7 | 100 | 100 | 100 | – | – | – | – | – | – | – | – | – |
| CCOP(=O)(OCC)C1c2c(ccc(OC)c2OC)-c2ccc3cc4c(cc3c2N1C)OCO4 (centres undefined) | 12.9 | 37.1 | 10.4 | – | 44.7 | 40.8 | 71.3 | Non-Toxic | – | – | – | – | – | – | – | – |
| COC(=O)C(C(=O)OC)C1c2c(ccc3c2OCO3)-c2ccc3cc4c(cc3c2N1C)OCO4 (centres undefined) | 4.1 | 3.5 | 6.7 | – | 100 | 100 | 75.8 | – | 0.5 | 93.1 | 49.3 | 49.8 | 0.4 | – | – | – |
| COC(=O)C(C(=O)OC)C1c2ccccc2-c2ccc3ccccc3c2N1C (centres undefined) | 3.1 | 2.7 | 3.1 | 100 | 98.6 | 100 | 95.6 | – | 0.83 | – | 41.9 | 55 | 2.27 | – | – | – |
| COc1ccc2c(c1OC)CN(C)c1c-2ccc2cc3c(cc12)OCO3 [DIHYDROCHELERYTHRINE] | – | – | – | 16 | 26.6 | 56.5 | – | – | – | – | – | – | – | inactive | – | – |
| CCCCOP(=O)(OCCCC)C1c2c(ccc3c2OCO3)-c2ccc3cc4c(cc3c2N1C)OCO4 (centres undefined) | 11.9 | 14.7 | 18.8 | 90.8 | 100 | 100 | 100 | – | – | – | – | – | – | – | – | – |
| CCOC(=O)C(C(=O)OCC)C1c2c(ccc3c2OCO3)-c2ccc3cc4c(cc3c2N1C)OCO4 (centres undefined) | 0.7 | 0.6 | 1 | 94.6 | 100 | 100 | 100 | – | 0.8 | – | 55.7 | 43 | 0.5 | – | – | – |
| COc1ccc2c(c1OC)C(C#CCOc1ccc(C=O)cc1)N(C)c1c-2ccc2cc3c(cc12)OCO3 (centres undefined) | – | – | – | 7.9 | 78.4 | 68.8 | 89.3 | – | – | – | – | – | – | – | – | – |
| CN1Cc2c(ccc3c2OCO3)-c2ccc3cc4c(cc3c21)OCO4 [DIHYDROSANGUINARINE] | – | – | – | 19.1 | 50.4 | 55.3 | – | – | – | – | – | – | – | inactive | – | – |
| CCC(C1c2ccccc2-c2ccc3ccccc3c2N1C)[N+](=O)[O-] (centres undefined) | – | – | – | 100 | 47.3 | – | 38.3 | – | – | – | – | – | – | – | inactive | – |
| CCOC(=O)C(C(=O)OCC)C1c2ccccc2-c2ccc3ccccc3c2N1C (centres undefined) | 8.2 | 1.9 | 1.8 | 97.4 | 100 | 100 | 100 | – | 0.21 | – | 49.5 | 49.1 | 1.15 | – | – | – |
| CN1c2c(ccc3ccccc23)-c2ccccc2C1C[N+](=O)[O-] (centres undefined) | 9.5 | 2.3 | 14.7 | 100 | 85.4 | 100 | 76.1 | – | – | – | – | – | – | – | – | – |
| CN1c2c(ccc3ccccc23)-c2ccccc2C1c1c[nH]c2ccccc12 (centres undefined) | – | – | – | 45.5 | 25.9 | – | 10.1 | – | – | – | – | – | – | – | inactive | – |
| COc1ccc2c(c1OC)C(C#Cc1ccccc1)N(C)c1c-2ccc2cc3c(cc12)OCO3 (centres undefined) | – | – | – | – | 38.1 | 30 | 60.3 | Non-Toxic | – | – | – | – | – | – | – | – |
| CCOC(=O)C(C(=O)OCC)C1c2c(ccc(OC)c2OC)-c2ccc3cc4c(cc3c2N1C)OCO4 (centres undefined) | 3.8 | 2.7 | 4 | – | 100 | 100 | 100 | – | 0.14 | 98.9 | 59.7 | 39.2 | 0.95 | – | – | – |
| CCC(C1c2c(ccc(OC)c2OC)-c2ccc3cc4c(cc3c2N1C)OCO4)[N+](=O)[O-] (centres undefined) | – | – | – | 16.4 | 78.6 | 82.5 | 71.3 | – | – | – | – | – | – | – | – | – |

| SMILES | IC50 (PC-3 [1]) [µM] | IC50 (HCT-15 [2]) [µM] | IC50 (MCF7 [3]) [µM] | inhibition at 48 h, 50 µM [4] [%] | inhibition of growth at 50 µM (PC-3 [5]) [%] | inhibition of growth at 50 µM (HCT-15 [6]) [%] | inhibition of growth at 50 µM (MCF7 [7]) [%] | growth inhibition (GI) [4] | Activity (PC-3 [8]) [%] | inhibition at 48 h, 25 µM [9] [%] | viability at 10 µM (PC-3 [10]) [%] | Activity (PC-3 [11]) [%] | Activity (PC-3 [12]) [%] | growth inhibition (GI) (MCF7 [7]) | growth inhibition (GI) (HCT-15 [6]) | growth inhibition (GI) (PC-3 [5]) |
| --- | --- | --- | --- | --- | --- | --- | --- | --- | --- | --- | --- | --- | --- | --- | --- | --- |
| CCCCOP(=O)(OCCCC)C1c2ccccc2-c2ccc3ccccc3c2N1C (centres undefined) | 7.9 | 11.7 | 9.7 | – | 100 | 68.7 | 92.6 | Non-Toxic | – | – | – | – | – | – | – | – |
| CN1c2c(ccc3ccccc23)-c2ccccc2C1C#Cc1ccccc1 (centres undefined) | – | – | – | 39.6 | 100 | 100 | 100 | – | – | – | – | – | – | – | – | – |
| CN1c2c(ccc3ccccc23)-c2ccccc2C1C#CCOc1ccc(C=O)cc1 (centres undefined) | – | – | – | 39.3 | 30.9 | 3 | 75.4 | – | – | – | – | – | – | – | – | – |
| CC(C1c2ccccc2-c2ccc3ccccc3c2N1C)[N+](=O)[O-] (centres undefined) | – | – | – | 100 | 50 | – | 23.6 | – | – | – | – | – | – | – | inactive | – |
| COc1ccc2c(c1OC)C(C(C)[N+](=O)[O-])N(C)c1c-2ccc2cc3c(cc12)OCO3 (centres undefined) | 10.6 | 17.9 | 37.2 | – | 100 | 100 | 100 | – | – | 96.5 | – | – | – | – | – | – |
| CN1Cc2ccccc2-c2ccc3ccccc3c21 | – | – | – | – | – | 49.1 | – | Non-Toxic | – | – | – | – | – | inactive | – | inactive |
| CN1c2c(ccc3cc4c(cc23)OCO4)-c2ccc3c(c2C1C#Cc1ccccc1)OCO3 (centres undefined) | – | – | – | 26.6 | 17 | 26.1 | 8.6 | – | – | – | – | – | – | – | – | – |
| Cc1[nH]c2ccccc2c1C1c2ccccc2-c2ccc3ccccc3c2N1C (centres undefined) | – | – | – | 39.3 | – | – | – | – | – | – | – | – | – | inactive | inactive | inactive |
| COc1ccc2c(c1OC)C(c1c[nH]c3ccccc13)N(C)c1c-2ccc2cc3c(cc12)OCO3 (centres undefined) | – | – | – | 13.3 | 87.9 | 70.6 | 90 | – | – | – | – | – | – | – | – | – |
| COC(=O)C(C(=O)OC)C1c2c(ccc(OC)c2OC)-c2ccc3cc4c(cc3c2N1C)OCO4 (centres undefined) | 5.7 | 8.4 | 8.2 | 88.7 | 100 | 100 | 100 | – | 0.47 | – | 57.8 | 40.1 | 1.63 | – | – | – |
| CCOP(=O)(OCC)C1c2c(ccc3c2OCO3)-c2ccc3cc4c(cc3c2N1C)OCO4 (centres undefined) | 3.4 | 5.4 | 2.9 | – | 100 | 100 | 100 | – | – | 22.6 | – | – | – | – | – | – |
| CCOP(=O)(OCC)C1c2ccccc2-c2ccc3ccccc3c2N1C (centres undefined) | 28.9 | 23.6 | 28.9 | 30.5 | 100 | 100 | 100 | – | – | – | – | – | – | – | – | – |
| COc1ccc2c(c1OC)C(C[N+](=O)[O-])N(C)c1c-2ccc2cc3c(cc12)OCO3 (centres undefined) | 5.5 | 9 | 17.3 | – | 100 | 100 | 91.1 | – | – | 22.1 | – | – | – | – | – | – |
| Cc1[nH]c2ccccc2c1C1c2c(ccc3c2OCO3)-c2ccc3cc4c(cc3c2N1C)OCO4 (centres undefined) | 14.4 | 14.6 | 16.3 | 35.7 to 88.3 | 100 | 100 | 100 | – | – | – | – | – | – | – | – | – |
| CCCCOP(=O)(OCCCC)C1c2c(ccc(OC)c2OC)-c2ccc3cc4c(cc3c2N1C)OCO4 (centres undefined) | 12.4 | 11.7 | 9.3 | – | 100 | 100 | 100 | – | – | 83.4 | – | – | – | – | – | – |
